Measured values published in patent publication US10501502B2, “Allophycocyanin alpha-subunit evolved labeling proteins (smURFPs)” (The Regents of the University of California, priority 2016, dated 2019).
“Also recorded” adds a separate entry of the source.

Tests used:
[1] = tested on: HEK293A cells; assay: Fluorescence imaging of FPs in HEK293A cells with chromophore addition or HO-1 expression; assay type: cell-based
Source text: smURFP codons were optimized for human cell expression, and the gene was created by GenScript. smURFP, TDsmURFP (created from mammalian-optimized smURFP), IFP1.4 (mammalian-optimized form^35), IFP2.0 (mammalian-optimized form^46), and iRFP713 (mammalian-optimized form^36) were PCR amplified using Phusion High-Fidelity DNA Polymerase (NEB) with primers containing 5′ HindIII and 3′ XhoI restriction enzyme sites. HindIII-HF and XhoI (NEB)-digested PCR fragments were gel purified (Zymoclean Gel DNA Recovery Kit) and were ligated (T4 DNA Ligase, Life Technologies) into a similarly digested pCDNA3-IRES-eGFP vector (bicistronic to express two FPs in the same cell). For creation of HO-1-expressing mammalian vec-tors, the Synechocystis HO-1 was used, and the codons were not optimized for mammalian expression. Synechocystis HO-1 was directly amplified from the pBAD vector using primers containing 5′ BsiWI and 3′ XbaI restriction enzyme sites. pCDNA3 smURFP, TDsmURFP, IFP1.4, IFP2.0, or iRFP713-IRES-eGFP vectors were digested with BsiWI and XbaI (NEB), dephosphorylated (SAP, Roche), gel purified (Zymoclean Gel DNA Recovery Kit), and ligated (T4 DNA Ligase, Life Technologies) with similarly digested, purified HO-1 PCR fragment. For creation of smURFP fusions, smURFP was PCR amplified using Phusion High-Fidelity DNA Polymerase (NEB) with primers containing 5′ AgeI and 3′ NotI restriction enzyme sites for N-terminal fusions or with primers containing 5′ AgeI and 3′ BspEI restriction enzyme sites for C-terminal fusions. mGeos2-VEL-ManII-N-10 (Addgene 57551) and Dronpa-PDHA1-N-10 (Addgene 57292) vectors were digested with AgeI and NotI (NEB) and mCherry-αTubulin-C-18 (Addgene 55148) and tdTomato-LaminB1-10 (Addgene 58107) were digested with AgeI and BspEI, dephosphorylated (SAP, Roche), gel purified (Zymoclean Gel DNA Recovery Kit), and ligated (T4 DNA Ligase, Life Technologies) with similarly digested, purified smURFP PCR fragment. HEK293A (Invitrogen, Life Technologies), HT1080 (ATCC), and PC3 (ATCC) cells were grown in Dulbecco's Modified Eagle's medium (DMEM, Corning), supplemented with 10% FBS (Atlanta Biologicals)+1×penicillin—streptomycin (Fisher Scientific), which is referred to as growth media, on poly-D-lysine-coated glass-bottom culture dishes (MatTek, No. P35G-0-14-C). The HEK cell line is listed in the ICLAC and NCBI biosample databases and is commonly misidentified as the HeLa cell line. For expression of exogenous fluorescent proteins, there is no problem if there is a contaminating cell line because no endogenous biology or therapeutic results are being determined. HEK293A cells were purchased from Invitrogen (Life Technologies), and all experiments are derived from the same expanded frozen stock without cell line authentication or mycoplasma detection. Cells were transfected using 2 μg of circular DNA+5 μl Lipofectamine 2000 (Life Technologies) in 2 ml Opti-MEM (Life Technologies) for 4-5 h, transfection media was discarded, and prewarmed growth media was added. Chromophores (5 mM in DMSO) were added at indicated concentrations to growth media, warmed for 10-15 min at 37° C., and added to cells. For multiple timepoints, incubations were staggered to maintain equivalent incubation. Prior to imaging, cells were washed 1×2 ml growth media, 2×2 ml imaging solution, and imaged in 2 ml imaging solution. Fluorescence imaging was performed on a Zeiss Axiovert 200M inverted microscope controlled by SlideBook software. FPs were imaged with the following settings: eGFP, EX/EM=495(10)/535(25) nm, tdTomato EX/EM=540(25)/595(50) nm; mCherry and mCardinal, EX/EM=580(20)/653(95) nm; smURFP and TDsmURFP, EX/EX=628(40)/680(30) nm; and IFP1.4, IFP2.0, and iRFP713, EX/EM=665(45)/725(50) nm. […]

[2] = BV or BVMe2 concentration in plasma, in vitro; conditions: 10 μM, 37° C., up to 1,440 min
Method: Whole blood was collected via abdominal aorta and placed in tubes with lithium heparin (BD, No. 365971) on ice. Tubes were centrifuged to remove red blood cells, and plasma was stored on ice for 30 min. Clarified plasma was combined and aliquoted into 9×70 μl aliquots and placed on ice. The following nine experiments were performed: starting plasma (1) and plasma+10 μM BV (2-5) or BVMe2(6-9) at time 0 at 4° C. and 15, 60, and 1,440 min at 37° C. Reactions were stopped by freezing at −80° C. Plasma samples were thawed, diluted 4× with cold 50% ACN, 48% water (H2O), and 2% acetic acid, and centrifuged for 14 min at 4° C. Reverse-phase high performance liquid chromatography (HPLC) was performed on an Agilent 1100 Series HPLC on a Phenomenex Luna C18(2) reverse-phase column 100 Å, 250 cm×21.20 mm I.D. 10 μm reverse-phase column (00G-4253-P0 AX), with a 21 min, 10-90% H2O:ACN (0.05% trifluoroacetic acid, TFA) gradient and a flow rate of 1 ml/min into a diode array detector and MSD-Ion Trap (Agilent LC/MSD trap XCT).

[3] = FP purification and fluorescence characterization in vitro (spectra, extinction coefficient, quantum yield); assay type: physicochemical
Method: FP genes were expressed on a pBAD vector (Life Technologies) with a polyhistidine tag on the C terminus, cells were lysed with B-PER (Thermo Scientific), and purified using Ni-NTA (Qiagen) puri-fication. PCB (HO-1+PcyA) and BV (HO-1) incorporation in Escherichia coli was performed simultaneously during constitu-tively active FP expression. Extinction coefficient was determined by PCB or BV absorbance as described35,36 (Table 3, smURFP+BV and TDsmURFP+BV, and Table 2) or calculated for the apoproteins by determining the protein concentration by the BCA protein assay (Pierce), and a specific chromo-phore concentration was added (specified in the Purification of FP lacking chromophore and in vitro chromophore incorporation section) to get 1 and 2 chromophore species (Table 5, not including (Escherichia coli)). When FP chromophore (PCB or BV) was expressed in Escherichia coli, the PCB and BV Q band had absorbance that overlapped with detection of BCA or Bradford assay of 562 nm and 592 nm, respectively. We used the previously published protocols35,36, where there was no change of the BV absorbance at 390 nm when free in solution or attached to the FP. smURFP+BV denaturation with 1 M urea caused no change in the BV absorbance at 390 nm, but the Q band was reduced ˜20-fold. Therefore, the extinction coefficient of BV at 390 nm was used to calculate the concentration of holoprotein (FP+PCB or BV) concentration.
EX and EM spectra were obtained using SPEX Fluorolog fluorometer (Horiba). Absorbance spectra were obtained using UV-VIS Spectrophotometer Cary Eclipse (Varian) or UV-2700 (Shimadzu). Quantum yield was determined relative to Cy5. Incorporation rates of BV on 0.5 μM smURFP was performed by addition of smURFP to PBS alone or with 20% fetal bovine serum (FBS) and mixed by pipetting in a quartz cuvette. Chromophore was added last, mixed by pipetting, and fluorescence was recorded using SPEX Fluorolog fluorometer (Horiba). Photobleaching was characterized on bubbles of purified FP or Cy5 within mineral oil using light from a 150 W xenon arc lamp with 100% light through EX/EM=628(40)/680(30) nm for smURFP, TDsmURFP, and Cy5 or EX/EM=665 (45)/725 (50) nm for IFP 1.4 focused with a 40×, 1.2 numerical aperture C-Apochromat oil-immersion lens on a Zeiss Axiovert 200M inverted microscope. Photobleaching times were normalized to reflect an initial illumination intensity producing 1,000 photons per fluorescent molecule per second as previously described^37.
HO-1 was removed by digesting the pBAD vector (Life Technology) with MscI and PmeI (NEB). smURFP and TDsmURFP were expressed and purified as described above. No chromophore was present on smURFP and TDsmURFP (confirmed by UV, fluorescence imaging, and MS). For predominant fluorescent species+2 chromophores, a ten-fold excess of chromophore was added to smURFP and TDsmURFP. For predominant fluorescent species+1 chromophore, a quarter concentration of chromophore was added to smURFP and TDsmURFP. Chromophore was added in PBS+10% FBS at 37° C. overnight. smURFP+chromophore and TDsmURFP+chromophore were purified using NiNTA (Qiagen) to remove excess or noncovalently attached chromophore.

C=CC1=C(C)/C(=C/C2=NC(=C\c3[nH]c(/C=C4\NC(=O)C(C)=C4C=C)c(C)c3CCC(=O)O)/C(CCC(=O)O)=C2C)NC1=O [BV, biliverdin, reference compound]
fluorescence with 25 μM BV at pH 6.4 relative to BV at pH 7.5 ([1]; 3.5 h): increased fluorescence three-fold | fluorescence with protonated BV (pH 6.4) relative to BVMe2 ([1]; pH 6.4): five-fold less | stability in plasma in vitro [2]: slower degradation; also recorded: significantly degraded | quantum yield (QY) [3]: 0.013%
